Measured values taken from the supplement of paper PMC10883282.

Tests used:
Test in all cases: relative viability vs DMSO control (72 h) (fraction); higher = more viable cells
SK-ES-1 = test system: SK-ES-1
Procedure, shortened: (§1)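 Sarcoma cell lines went into 384-well plates at densities chosen to reach 80–90% confluence. After 24 h, each well received 2.5 µl of serially diluted compound, with source plates running from 10 mM to 0.0002 mM, and the plates were kept 72 h at 37 °C, 5% CO2, alongside 0.1% DMSO vehicle and a 5 µM positive control. Relative viability was derived from ATPLite readings as percent growth and averaged over up to triplicate wells. The data were then rescaled so that 1 stands for full and 0 for none.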

G401 = test system: G401
Procedure, shortened: as §1

VA-ES-BJ = test system: VA-ES-BJ
Procedure, shortened: as §1

HT1080 = test system: HT1080
Procedure, shortened: as §1

SK-LMS-1 = test system: SK-LMS-1
Procedure, shortened: as §1

RD-ES = test system: RD-ES
Procedure, shortened: as §1

SW982 = test system: SW982
Procedure, shortened: as §1

KHOS-NP = test system: KHOS-NP
Procedure, shortened: as §1

A204 = test system: A204
Procedure, shortened: as §1

HS729 = test system: HS729
Procedure, shortened: as §1

SW684 = test system: SW684
Procedure, shortened: as §1

SW872 = test system: SW872
Procedure, shortened: as §1

Cn1cnc2c(F)c(Nc3ccc(Br)cc3Cl)c(C(=O)NOCCO)cc21 [Selumetinib]
Conditions	relative viability
A204, 0.00017 µM	1.03
A204, 0.00051 µM	1.02
A204, 0.00152 µM	1.01
A204, 0.00457 µM	1.055
A204, 0.01372 µM	0.988
A204, 0.04115 µM	0.977
A204, 0.1235 µM	0.947
A204, 0.3704 µM	0.973
A204, 1.111 µM	0.939
A204, 3.333 µM	0.9367
A204, 10 µM	0.811
G401, 0.00017 µM	0.994
G401, 0.00051 µM	0.962
G401, 0.00152 µM	0.959
G401, 0.00457 µM	0.935
G401, 0.01372 µM	0.949
G401, 0.04115 µM	0.926
G401, 0.1235 µM	0.882
G401, 0.3704 µM	0.838
G401, 1.111 µM	0.78
G401, 3.333 µM	0.719
G401, 10 µM	0.627
HS729, 0.00017 µM	0.898
HS729, 0.00051 µM	0.929
HS729, 0.00152 µM	0.869
HS729, 0.00457 µM	0.894
HS729, 0.01372 µM	0.896
HS729, 0.04115 µM	0.902
HS729, 0.1235 µM	0.849
HS729, 0.3704 µM	0.843
HS729, 1.111 µM	0.846
HS729, 3.333 µM	0.82
HS729, 10 µM	0.794
HT1080, 0.00017 µM	0.96
HT1080, 0.00051 µM	0.97
HT1080, 0.00152 µM	0.974
HT1080, 0.00457 µM	0.9799
HT1080, 0.01372 µM	0.927
HT1080, 0.04115 µM	0.855
HT1080, 0.1235 µM	0.805
HT1080, 0.3704 µM	0.6793
HT1080, 1.111 µM	0.602
HT1080, 3.333 µM	0.491
HT1080, 10 µM	0.462
KHOS-NP, 0.00017 µM	1.06
KHOS-NP, 0.00051 µM	1.03
KHOS-NP, 0.00152 µM	1.04
KHOS-NP, 0.00457 µM	1.04
KHOS-NP, 0.01372 µM	1.01
KHOS-NP, 0.04115 µM	0.965
KHOS-NP, 0.1235 µM	0.823
KHOS-NP, 0.3704 µM	0.727
KHOS-NP, 1.111 µM	0.526
KHOS-NP, 3.333 µM	0.351
KHOS-NP, 10 µM	0.277
RD-ES, 0.00017 µM	0.958
RD-ES, 0.00051 µM	0.942
RD-ES, 0.00152 µM	0.95
RD-ES, 0.00457 µM	0.985
RD-ES, 0.01372 µM	0.973
RD-ES, 0.04115 µM	0.965
RD-ES, 0.1235 µM	0.927
RD-ES, 0.3704 µM	0.942
RD-ES, 1.111 µM	0.935
RD-ES, 3.333 µM	0.933
RD-ES, 10 µM	0.855
SK-ES-1, 0.00017 µM	0.944
SK-ES-1, 0.00051 µM	0.961
SK-ES-1, 0.00152 µM	0.951
SK-ES-1, 0.00457 µM	0.956
SK-ES-1, 0.01372 µM	0.951
SK-ES-1, 0.04115 µM	0.929
SK-ES-1, 0.1235 µM	0.932
SK-ES-1, 0.3704 µM	0.925
SK-ES-1, 1.111 µM	0.925
SK-ES-1, 3.333 µM	0.925
SK-ES-1, 10 µM	0.87
SK-LMS-1, 0.00017 µM	0.942
SK-LMS-1, 0.00051 µM	0.955
SK-LMS-1, 0.00152 µM	0.953
SK-LMS-1, 0.00457 µM	0.945
SK-LMS-1, 0.01372 µM	0.875
SK-LMS-1, 0.04115 µM	0.708
SK-LMS-1, 0.1235 µM	0.6
SK-LMS-1, 0.3704 µM	0.601
SK-LMS-1, 1.111 µM	0.5484
SK-LMS-1, 3.333 µM	0.491
SK-LMS-1, 10 µM	0.37
SW684, 0.00017 µM	1.04
SW684, 0.00051 µM	1.09
SW684, 0.00152 µM	1.06
SW684, 0.00457 µM	1.03
SW684, 0.01372 µM	1.03
SW684, 0.04115 µM	0.973
SW684, 0.1235 µM	0.969
SW684, 0.3704 µM	0.98
SW684, 1.111 µM	0.941
SW684, 3.333 µM	0.84
SW684, 10 µM	0.692
SW872, 0.00017 µM	0.957
SW872, 0.00051 µM	0.985
SW872, 0.00152 µM	0.951
SW872, 0.00457 µM	0.938
SW872, 0.01372 µM	0.894
SW872, 0.04115 µM	0.758
SW872, 0.1235 µM	0.654
SW872, 0.3704 µM	0.58
SW872, 1.111 µM	0.58
SW872, 3.333 µM	0.562
SW872, 10 µM	0.545
SW982, 0.00017 µM	1.01
SW982, 0.00051 µM	1.01
SW982, 0.00152 µM	1.02
SW982, 0.00457 µM	1.01
SW982, 0.01372 µM	0.99
SW982, 0.04115 µM	0.956
SW982, 0.1235 µM	0.9336
SW982, 0.3704 µM	0.902
SW982, 1.111 µM	0.876
SW982, 3.333 µM	0.835
SW982, 10 µM	0.804
VA-ES-BJ, 0.00017 µM	0.9961
VA-ES-BJ, 0.00051 µM	0.992
VA-ES-BJ, 0.00152 µM	0.985
VA-ES-BJ, 0.00457 µM	0.964
VA-ES-BJ, 0.01372 µM	0.947
VA-ES-BJ, 0.04115 µM	0.877
VA-ES-BJ, 0.1235 µM	0.8465
VA-ES-BJ, 0.3704 µM	0.836
VA-ES-BJ, 1.111 µM	0.808
VA-ES-BJ, 3.333 µM	0.78
VA-ES-BJ, 10 µM	0.742
